{"source": "paper PMC5920098", "about": "“Identification of the allosteric P2X7 receptor antagonist [^11C]SMW139 as a PET tracer of microglial activation” (Scientific Reports, 2018)", "key": {"[1]": {"biological_target": "T1, P2X7R (Homo sapiens, UniProt Q99572)", "T1 construct": "Snap frozen human post-mortem; tissue The Netherlands Brain Bank; host or cells: post mortem human temporal cortex (AD patients and non-neurological controls)", "T1 sequence (Q99572 1-595)": "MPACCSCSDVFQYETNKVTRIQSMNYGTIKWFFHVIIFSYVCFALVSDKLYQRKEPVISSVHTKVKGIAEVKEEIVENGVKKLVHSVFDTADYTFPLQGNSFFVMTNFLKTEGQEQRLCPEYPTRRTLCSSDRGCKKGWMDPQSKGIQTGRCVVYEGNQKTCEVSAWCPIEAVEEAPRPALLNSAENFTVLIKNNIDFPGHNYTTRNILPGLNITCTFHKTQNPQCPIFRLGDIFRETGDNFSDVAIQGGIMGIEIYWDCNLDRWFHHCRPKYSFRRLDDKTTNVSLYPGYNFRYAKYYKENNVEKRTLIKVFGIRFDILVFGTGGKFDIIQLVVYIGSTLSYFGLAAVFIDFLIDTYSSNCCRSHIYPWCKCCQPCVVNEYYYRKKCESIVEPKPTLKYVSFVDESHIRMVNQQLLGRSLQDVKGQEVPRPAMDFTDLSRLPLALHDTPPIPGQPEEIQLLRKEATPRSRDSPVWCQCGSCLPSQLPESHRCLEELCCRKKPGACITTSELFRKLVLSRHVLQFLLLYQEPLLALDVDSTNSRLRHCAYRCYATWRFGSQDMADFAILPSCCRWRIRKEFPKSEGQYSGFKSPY", "test": "In vitro autoradiography on post mortem human brain tissue (AD patients and controls)", "format": "binding", "settings": "tracer 28 nM"}, "[2]": {"biological_target": "T2, hP2X7R (Homo sapiens, UniProt Q99572)", "T2 construct": "3xFLAG (3flag); expressed in transfected cells; host or cells: rat striatum (female Wistar rats), transduced in vivo with the AAV vector rAAV_3flag-hP2X7R", "T2 sequence (Q99572 1-595)": "T1 sequence (Q99572 1-595)", "test": "PET imaging in rats locally overexpressing hP2X7R in right striatum", "format": "in vivo, rat", "settings": "PET", "procedure": "Uptake of [^11C]SMW139 was 1.5-fold higher in the right striatum compared with the contralateral striatum at 4–15 min p.i. (n = 3; Fig. 6A,B, and Supplementary Figure S5, 5 weeks after vector injection). […] (2.85 ± 0.69 vs. 2.30 ± 0.36 in contralateral striatum) throughout the remainder of the scanning time.\nFemale rats were injected with the hP2X7R expressing vector in the right striatum, and eGFP expressing vector in the left striatum, which is described in detail in the Supplementary Information. […] To confirm stable expression of hP2X7R during the time period in which PET scanning studies were conducted, autoradiography experiments were performed both prior to and following PET experiments. In a dedicated small animal PET scanner (nanoPET, Mediso Ltd.), 60 min dynamic PET scans were acquired immediately after intravenous administration of 16–20 MBq of [^11C]SMW139. […] 45 min prior to tracer injection. After data reconstruction (details in Supplementary Information), images were analysed using the freely available AMIDE software (version 0.9.2; http://amide.sourceforge.net). ROIs were drawn around ipsi- and contralateral striata. Results are expressed as standardised uptake values (SUVs) and error bars indicate standard deviation.\nStereotactic injection of viral vector […]\nto a 10 µL Hamilton syringe. […]\ndorsoventral -0.64 cm relative to bregma. […]\nminutes before removing it slowly.\nRats were sacrificed for in\nDynamic PET imaging was performed using dedicated small animal NanoPET/CT and NanoPET/MR scanners (Mediso Ltd., Budapest, Hungary) which are equipped with identical PET components. […]\nanaesthetised with 4% and 2% isoflurane in oxygen (1 L·min-1) for induction and maintenance, respectively. Rats were positioned on the scanner bed and their respiratory rate was monitored during the entire scan, and anaesthesia was adjusted whenever required. Dynamic PET scans were acquired immediately after intravenous (i.v.) administration of 16-20 MBq of [11C]SMW139 via the tail vein. For […]\nhydroxypropyl)-β-cyclodextrin in water for injection 45 min prior to tracer injection. PET scans were acquired in list mode and rebinned into the following frame sequence: 4 × 5, 4 x 10, 2 x 30, 3x 60, 2 x 300, 1 x 600, 1 x 900 and 1 x 1200 s. Reconstruction was performed using a fully 3-dimensional reconstruction algorithm (Tera-TomoTM, Mediso Ltd.) with 4 iterations and 6 subsets, and an isotropic 0.4 mm voxel dimension. Images were analysed using the freely available AMIDE software (version 0.9.2; http://amide.sourceforge.net). 3D ellipsoid ROIs (dimensions x = 3.4 mm, y = 3.6 mm, z = 2.9 […]\nmm) were drawn within ipsi- and contralateral striata. Results are expressed as standardised uptake values (SUVs) and error bars indicate standard deviation. SUV were calculated as follows, with cimg in MBq/mL, injected dose in MBq and bodyweight in kg:\nAn unpaired two-tailed t-test was used for statistical analysis of PET data, which was performed using […]\nallowed to recover for 1 week after scanning. After 1 week of recovery following the final scan (12 weeks after stereotactic vector injection) animals were sacrificed, and brains were excised and stored […]\nExtended single microdose toxicity study\nA single microdose toxicity study according to EMEA guideline EMA/CPMP/ICH/286/1995 (December 2009) was performed in healthy Wistar rats at a 1000 times higher dose than the maximal dose […]\nminimum specific activity of 18.5 GBq·µmol-1). Animals were allowed to acclimatise for 10 days, group-housed and in an enriched environment with food and water available ad libitum, and with a 12-hour light-dark cycle in a temperature controlled room."}, "[3]": {"biological_target": "T3, human P2X7 receptor (hP2X7R) (Homo sapiens, UniProt Q99572)", "T3 sequence (Q99572 1-595)": "T1 sequence (Q99572 1-595)", "test": "In vitro autoradiography on rat brain cryosections locally overexpressing hP2X7R", "settings": "tracer 28 nM", "description": "Snap frozen brain tissue was cut on a cryostat into 20 μm sections.\nFemale Wistar rats (n=7) were anaesthetised by intraperitoneal (i.p.)\ninjection of ketamine (75 mg·kg-1); Ketalar, Pfizer, Brussels, Belgium) and medetomidin (1 mg·kg-1;\nDomitor, Pfizer) and positioned in a stereotactic head frame (Stoelting, Wood Dale, IL, USA). Right and\nleft striatum were injected with 4 µL of the hP2X7R vector (rAAV_3flag-hP2X7R) and of the control\nvector (rAAV_3flag-eGFP), respectively, at a rate of 0.25 µL·min-1, using a 30-gauge needle connected\nto a 10 µL Hamilton syringe. Coordinates used for striatal injection of the hP2X7R vector were:\nanteroposterior 0 cm, lateral -0.28 cm and dorsoventral -0.64 cm relative to bregma. Coordinates\nused for striatal injection of the eGFP vector were: anteroposterior 0 cm, lateral +0.28 cm and\ndorsoventral -0.64 cm relative to bregma. After injection, the needle was kept in place for another 5\nminutes before removing it slowly. To reverse the anaesthesia, the rats were injected intraperitoneally\nwith 0.5 mg·kg-1 atipamezol (Antisedan, Orion Pharma, Newburry, Berkshire, UK).\nvitro autoradiography at 3 (n=2) and 12 (n=5) weeks after vector injection.\nSnap frozen brains of female Wistar rats (rAAV_3flag-hP2X7R in right striatum; rAAV_3flag-eGFP in left\nstriatum; sacrificed 3 weeks (n = 2) or 12 weeks (n = 5) after vector injection) were cut on a Leica\nCM3050 S cryostat (Leica Biosystems, Nussloch, Germany) at -19 °C in transversal sections of 20 µm,\nthaw-mounted on SuperFrostTM Plus (Thermo Fisher Scientific, Waltham, MA, USA) object glasses,\ndried overnight on silica at 4 °C and then stored at -20 °C until use.\nUpon use, sections were thawed to room temperature for an hour\nbefore washing the sections in 5 mM Tris-HCl buffer (pH 7.4) at room temperature (3x 5 min). Sections\nwere dried in a cold stream of air before incubation (30 min) with 5 mM Tris-HCl buffer (pH 7.4)\nconcentration. After incubation, sections were washed (3x 1.5 min) in ice-cold 5 mM Tris-HCl buffer\n(pH 7.4) followed by a dip in ice-cold demineralised water. Sections were dried in a stream of air and\nthen exposed to a storage phosphor screen (BAS-IP SR 2040 E, GE Healthcare Europe GmbH,\nEindhoven, the Netherlands) and the screen was read out on a Typhoon FLA 7000 phosphor imager\n(GE Healthcare Europe GmbH, Eindhoven, the Netherlands).\nquantified using ImageQuantTL Analysis Toolbox (version 8.1, GE Healthcare). In case of the rat brain\nsections, regions of interest (ROIs) were defined around the striatum. […] Results are expressed as mean intensity, or as\npercentage of tracer binding, relative to total tracer binding in the contralateral striatum. Experiments\nwith rAAV_3flag-hP2X7R injected rat brains were performed as a duplicate of quadruplicates.\nStatistical analysis of quantitative autoradiography data (unpaired t test, two-tailed) was performed"}}, "note": "“And” between values parts separate entries of the source, which are not always exact repeats. Identical values can stand only once. “Also recorded” adds a separate entry of the source."}
{"smiles": "[11CH3]Oc1ccc(Cl)c(C(=O)NCC23CC4(F)CC(F)(CC(F)(C4)C2)C3)c1", "note": "[[^11C]SMW139]", "values": [{"measurement": "Tracer binding in white matter vs grey matter", "setting": "[1]; AD patients and controls", "result": "Higher tracer binding was observed in white matter compared with grey matter; also recorded: higher in white matter than in grey matter"}, {"measurement": "Tracer binding in AD patients vs non-neurological controls", "setting": "[1]; temporal cortex, grey and white matter", "result": "does not differ significantly; also recorded: did not differ significantly; also recorded: no significant differences"}, {"measurement": "Time of peak of ipsi- to contralateral striatum ratio after tracer injection", "setting": "[2]", "result": "≤ 15", "unit": "min"}, {"measurement": "Uptake in right (hP2X7R) striatum compared with contralateral striatum", "setting": "[2]; 4–15 min p.i., n = 3, 5 weeks after vector injection", "result": 1.5, "unit": "fold"}, {"measurement": "Uptake in rAAV_3flag-hP2X7R striatum after pre-treatment with JNJ-47965567", "setting": "[2]; 2 min p.i., JNJ-47965567 30 mg·kg^−1 s.c. 45 min prior to tracer, n = 3, 11 weeks after vector injection", "result": "2.40 ± 0.22", "unit": "SUV"}, {"measurement": "Uptake in contralateral striatum", "setting": "[2]; 2 min p.i., baseline", "result": "2.30 ± 0.36", "unit": "SUV"}, {"measurement": "Uptake in rAAV_3flag-hP2X7R striatum", "setting": "[2]; 2 min p.i., baseline", "result": "2.85 ± 0.69", "unit": "SUV"}, {"measurement": "Mean intensity of tracer binding in rAAV_3flag-eGFP injected striatum", "setting": "[3]", "result": "69 ± 10", "unit": "counts"}, {"measurement": "Mean intensity of tracer binding in rAAV_3flag-hP2X7R injected striatum", "setting": "[3]", "result": "678 ± 55", "unit": "counts"}, {"measurement": "Increased binding in rAAV_3flag-hP2X7R injected striatum vs rAAV_3flag-eGFP injected striatum", "setting": "[3]; n = 2", "result": "10 ± 2 fold and 10 fold"}]}
